Assays:
Type in all cases: functional
[1] = system: SNB-19; assay: Growth inhibition of human SNB19 cells assessed as cell growth at 5X10'-7 M after 48 hrs by sulforhodamine B assay; details: SNB-19, 48 h, read-out: Activity
[2] = system: KM12; assay: Growth inhibition of human KM12 cells assessed as cell growth at 5X10'-8 M after 48 hrs by sulforhodamine B assay; details: KM12, 48 h, read-out: Activity
[3] = system: SK-MEL-28; assay: Growth inhibition of human SK-MEL-28 cells assessed as cell growth at 5X10'-6 M after 48 hrs by sulforhodamine B assay; details: SK-MEL-28, 48 h, read-out: Activity
[4] = Growth inhibition of human NCI-ADR-RES cells assessed as cell growth at 5X10'-5 M after 48 hrs by sulforhodamine B assay; details: read-out: Activity
[5] = system: M14; assay: Growth inhibition of human M14 cells assessed as cell growth at 5X10'-9 M after 48 hrs by sulforhodamine B assay; details: M14, 48 h, read-out: Activity
[6] = system: ACHN; assay: Growth inhibition of human ACHN cells assessed as cell growth at 5X10'-9 M after 48 hrs by sulforhodamine B assay; details: read-out: Activity
[7] = system: A498; assay: Growth inhibition of human A498 cells assessed as cell growth at 5X10'-5 M after 48 hrs by sulforhodamine B assay; details: A498, 48 h, read-out: Activity
[8] = system: CAKI-1; assay: Growth inhibition of human CAKI-1 cells assessed as cell growth at 5X10'-6 M after 48 hrs by sulforhodamine B assay; details: CAKI-1, 48 h, read-out: Activity
[9] = system: OVCAR-8; assay: Growth inhibition of human OVCAR8 cells assessed as cell growth at 5X10'-8 M after 48 hrs by sulforhodamine B assay; details: OVCAR-8, 48 h, read-out: Activity
[10] = system: SW-620; assay: Growth inhibition of human SW620 cells assessed as cell growth at 5X10'-5 M after 48 hrs by sulforhodamine B assay; details: SW-620, 48 h, read-out: Activity
[11] = system: RXF 393; assay: Growth inhibition of human RXF393 cells assessed as cell growth at 5X10'-6 M after 48 hrs by sulforhodamine B assay; details: RXF 393, 48 h, read-out: Activity
[12] = system: PC-3; assay: Growth inhibition of human PC3 cells assessed as cell growth at 5X10'-6 M after 48 hrs by sulforhodamine B assay; details: PC-3, 48 h, read-out: Activity
[13] = system: SK-MEL-28; assay: Growth inhibition of human SK-MEL-28 cells assessed as cell growth at 5X10'-8 M after 48 hrs by sulforhodamine B assay; details: SK-MEL-28, 48 h, read-out: Activity
[14] = system: NCI-H522; assay: Growth inhibition of human NCI-H522 cells assessed as cell growth at 5X10'-8 M after 48 hrs by sulforhodamine B assay; details: NCI-H522, 48 h, read-out: Activity
[15] = Growth inhibition of human Hs 578T cells assessed as cell growth at 5X10'-5 M after 48 hrs by sulforhodamine B assay; details: read-out: Activity
[16] = system: HL-60(TB); assay: Growth inhibition of human HL-60(TB) cells assessed as cell growth at 5X10'-6 M after 48 hrs by sulforhodamine B assay; details: HL-60, 48 h, read-out: Activity
[17] = system: PC-3; assay: Growth inhibition of human PC3 cells assessed as cell growth at 5X10'-8 M after 48 hrs by sulforhodamine B assay; details: PC-3, 48 h, read-out: Activity
[18] = system: SR; assay: Growth inhibition of human SR cells assessed as cell growth at 5X10'-5 M after 48 hrs by sulforhodamine B assay; details: read-out: Activity
[19] = system: BT-549; assay: Growth inhibition of human BT549 cells assessed as cell growth at 5X10'-5 M after 48 hrs by sulforhodamine B assay; details: BT-549, 48 h, read-out: Activity
[20] = system: NCI-H226; assay: Growth inhibition of human NCI-H226 cells assessed as cell growth at 5X10'-7 M after 48 hrs by sulforhodamine B assay; details: NCI-H226, 48 h, read-out: Activity
[21] = system: MCF7; assay: Growth inhibition of human MCF7 cells assessed as cell growth at 5X10'-6 M after 48 hrs by sulforhodamine B assay; details: MCF7, 48 h, read-out: Activity
[22] = system: MDA-MB-435; assay: Growth inhibition of human MDA-MB-435 cells assessed as cell growth at 5X10'-9 M after 48 hrs by sulforhodamine B assay; details: MDA-MB-435, 48 h, read-out: Activity
[23] = system: A498; assay: Growth inhibition of human A498 cells assessed as cell growth at 5X10'-6 M after 48 hrs by sulforhodamine B assay; details: A498, 48 h, read-out: Activity
[24] = system: CCRF-CEM; assay: Growth inhibition of human CCRF-CEM cells assessed as cell growth at 5X10'-6 M after 48 hrs by sulforhodamine B assay; details: read-out: Activity
[25] = system: SK-OV-3; assay: Growth inhibition of human SKOV3 cells assessed as cell growth at 5X10'-6 M after 48 hrs by sulforhodamine B assay; details: SK-OV-3, 48 h, read-out: Activity
[26] = system: M14; assay: Growth inhibition of human M14 cells assessed as cell growth at 5X10'-5 M after 48 hrs by sulforhodamine B assay; details: M14, 48 h, read-out: Activity
[27] = system: BT-549; assay: Growth inhibition of human BT549 cells assessed as cell growth at 5X10'-7 M after 48 hrs by sulforhodamine B assay; details: BT-549, 48 h, read-out: Activity
[28] = system: HL-60(TB); assay: Growth inhibition of human HL-60(TB) cells assessed as cell growth at 5X10'-8 M after 48 hrs by sulforhodamine B assay; details: HL-60, 48 h, read-out: Activity
[29] = system: Malme-3M; assay: Growth inhibition of human MALME-3M cells assessed as cell growth at 5X10'-8 M after 48 hrs by sulforhodamine B assay; details: read-out: Activity
[30] = system: COLO 205; assay: Growth inhibition of human COLO205 cells assessed as cell growth at 5X10'-8 M after 48 hrs by sulforhodamine B assay; details: COLO 205, 48 h, read-out: Activity
[31] = system: NCI-H460; assay: Growth inhibition of human NCI-H460 cells assessed as cell growth at 5X10'-7 M after 48 hrs by sulforhodamine B assay; details: NCI-H460, 48 h, read-out: Activity
[32] = system: OVCAR-3; assay: Growth inhibition of human OVCAR3 cells assessed as cell growth at 5X10'-7 M after 48 hrs by sulforhodamine B assay; details: OVCAR-3, 48 h, read-out: Activity
[33] = system: HL-60(TB); assay: Growth inhibition of human HL-60(TB) cells assessed as cell growth at 5X10'-7 M after 48 hrs by sulforhodamine B assay; details: HL-60, 48 h, read-out: Activity
[34] = system: LOX IMVI; assay: Growth inhibition of human LOXIMVI cells assessed as cell growth at 5X10'-7 M after 48 hrs by sulforhodamine B assay; details: read-out: Activity
[35] = system: NCI-H226; assay: Growth inhibition of human NCI-H226 cells assessed as cell growth at 5X10'-8 M after 48 hrs by sulforhodamine B assay; details: NCI-H226, 48 h, read-out: Activity
[36] = system: MCF7; assay: Growth inhibition of human MCF7 cells assessed as cell growth at 5X10'-5 M after 48 hrs by sulforhodamine B assay; details: MCF7, 48 h, read-out: Activity
[37] = system: RXF 393; assay: Growth inhibition of human RXF393 cells assessed as cell growth at 5X10'-9 M after 48 hrs by sulforhodamine B assay; details: RXF 393, 48 h, read-out: Activity
[38] = Growth inhibition of human Hs 578T cells assessed as cell growth at 5X10'-9 M after 48 hrs by sulforhodamine B assay; details: read-out: Activity

SMILES | growth at 0.5 µM [1] | growth at 0.05 µM [2] | growth at 5 µM [3] | growth at 50 µM [4] | growth at 0.005 µM [5] | growth at 0.005 µM [6] | growth at 50 µM [7] | growth at 5 µM [8] | growth at 0.05 µM [9] | growth at 50 µM [10] | growth at 5 µM [11] | growth at 5 µM [12] | growth at 0.05 µM [13] | growth at 0.05 µM [14] | growth at 50 µM [15] | growth at 5 µM [16] | growth at 0.05 µM [17] | growth at 50 µM [18] | growth at 50 µM [19] | growth at 0.5 µM [20] | also measured
COc1cc(-c2nn(-c3cccc(NC(=O)Nc4ccc(Cl)c(Cl)c4)c3)cc2-c2ccncc2)ccc1Cl | 84% | 104% | 1% | -9% | 100% | 99% | -11% | -13% | 96% | 7% | -34% | -17% | 95% | 101% | 4% | 6% | 95% | -26% | -3% | 82% | growth at 5 µM [21]: 2%; growth at 0.005 µM [22]: 97%; growth at 5 µM [23]: -3%; growth at 5 µM [24]: -2%; growth at 5 µM [25]: 12%; growth at 50 µM [26]: -52%; growth at 0.5 µM [27]: 97%; growth at 0.05 µM [28]: 114%; growth at 0.05 µM [29]: 109%; growth at 0.05 µM [30]: 112%; growth at 0.5 µM [31]: 74%; growth at 0.5 µM [32]: 64%; growth at 0.5 µM [33]: 98%; growth at 0.5 µM [34]: 82%; growth at 0.05 µM [35]: 92%; growth at 50 µM [36]: 3%; growth at 0.005 µM [37]: 97%; growth at 0.005 µM [38]: 99%
COc1cc(-c2nn(-c3cccc(NC(=O)c4cccc(C(F)(F)F)c4)c3)cc2-c2ccncc2)ccc1Cl | 100% | 95% | 34% | -9% | 95% | 103% | -28% | 24% | 99% | 19% | -17% | 17% | 102% | 92% | 13% | 16% | 99% | -2% | -1% | 84% | growth at 5 µM [21]: 13%; growth at 0.005 µM [22]: 96%; growth at 5 µM [23]: -21%; growth at 5 µM [24]: 6%; growth at 5 µM [25]: 24%; growth at 50 µM [26]: 12%; growth at 0.5 µM [27]: 102%; growth at 0.05 µM [28]: 92%; growth at 0.05 µM [29]: 82%; growth at 0.05 µM [30]: 101%; growth at 0.5 µM [31]: 90%; growth at 0.5 µM [32]: 98%; growth at 0.5 µM [33]: 103%; growth at 0.5 µM [34]: 84%; growth at 0.05 µM [35]: 93%; growth at 50 µM [36]: 9%; growth at 0.005 µM [37]: 99%; growth at 0.005 µM [38]: 91%
COc1cc(-c2nn(-c3cccc(NC(=O)Nc4cccc(C(F)(F)F)c4)c3)cc2-c2ccncc2)ccc1Cl | 74% | 97% | -18% | -9% | 96% | 104% | -20% | -14% | 101% | -6% | -52% | -19% | 100% | 91% | -6% | 4% | 90% | -16% | -26% | 84% | growth at 5 µM [21]: 2%; growth at 0.005 µM [22]: 95%; growth at 5 µM [23]: -7%; growth at 5 µM [24]: -1%; growth at 5 µM [25]: 16%; growth at 50 µM [26]: -64%; growth at 0.5 µM [27]: 91%; growth at 0.05 µM [28]: 94%; growth at 0.05 µM [29]: 87%; growth at 0.05 µM [30]: 98%; growth at 0.5 µM [31]: 64%; growth at 0.5 µM [32]: 56%; growth at 0.5 µM [33]: 85%; growth at 0.5 µM [34]: 81%; growth at 0.05 µM [35]: 96%; growth at 50 µM [36]: -8%; growth at 0.005 µM [37]: 100%; growth at 0.005 µM [38]: 96%

— ChEMBL document CHEMBL2440076, “New triarylpyrazoles as broad-spectrum anticancer agents: design, synthesis, and biological evaluation” (Eur J Med Chem, 2013)
